In patent US12084485B2 (Intarcia Therapeutics, Inc., priority 2020, dated 2024):
Where two headings read alike, the source gives them in different places.

Experiments:
[1] = cited from earlier work
[2] = Body weight changes in LE rats after bolus SC dosing; assay type: in vivo, rat; conditions: 30 mcg/kg SC bolus
[3] = Weight-loss efficacy in LE DIO rats after bolus SC dosing; assay type: in vivo, rat; conditions: male LE DIO rats, from baseline and vehicle control (ΔΔ %)
[4] = Acute food intake inhibition in Long Evans rats after bolus SC dosing (BioDAQ); assay type: in vivo, rat; conditions: 30 mcg SC bolus
[5] = Comparative in vivo weight loss potency, A120 vs semaglutide, DIO rats (28 days); parameters: species or system rat
[6] = Body composition in male ZDF rats; assay type: in vivo, rat; conditions: day 25
HbA1c = experiment: Comparative in vivo HbA1c lowering potency, A120 vs semaglutide (28 days); parameters: species or system rat
[7] = Body composition (quantitative magnetic resonance) in male LE DIO rats; assay type: in vivo, rat; conditions: day 26
[8] = Stability in DMSO or DI water at 37° C. (purity by LC/MS and HPLC); assay type: physicochemical
[9] = Solubility in saline or DI water at room temperature (visual inspection); assay type: physicochemical; conditions: room temperature, as TFA salt unless indicated otherwise
[10] = ΔΔ % weight decrease in DIO rat at day 27
[11] = ΔΔ % change in HbA1c in ZDF rat at day 27
[12] = solute Saline, TFA salt unless indicated otherwise

| Molecule | % Weight change from Vehicle, 1 d [2] [%] | % Weight change from Vehicle, 2 d [2] [%] | % Weight change from Vehicle, 3 d [2] [%] | % Weight change from Vehicle, 4 d [2] [%] | DIO Weight Loss (30 mcg/kg SC bolus) % Weight change from Vehicle 2 d [3] [%] | DIO Weight Loss (30 mcg/kg SC bolus) % Weight change from Vehicle 3 d [3] [%] | DIO Weight Loss (30 mcg/kg SC bolus) % Weight change from Vehicle 4 d [3] [%] | % Food Intake Inhibition from Vehicle, 0-24 hr [4] [%] | % Food Intake Inhibition from Vehicle, 25-48 hr [4] [%] | % Food Intake Inhibition from Vehicle, 49-72 hr [4] [%] | % Food Intake Inhibition from Vehicle, 73-96 hr [4] [%] | other results |
| --- | --- | --- | --- | --- | --- | --- | --- | --- | --- | --- | --- | --- |
| human amylin: 37-residue polypeptide hormone co-secreted with insulin from pancreatic β-cells | – | – | – | – | – | – | – | – | – | – | – | half-life in serum [1]: about 13 minutes |
| CC[C@H](C)[C@@H]1NC(=O)[C@H](Cc2ccccc2)NC(=O)[C@H](CCCCN)NC(=O)[C@@H](NC(=O)[C@@H](NC(=O)[C@H](C)NC(=O)[C@H](CCC(=O)O)NC(=O)[C@H](CCCCNC(=O)CC[C@H](NC(=O)CC[C@H](NC(=O)COCCOCCNC(=O)CCCCCCCCCCCCCCCCCCC(=O)O)C(=O)O)C(=O)O)NC(=O)[C@H](CCC(=O)O)NC(=O)[C@H](Cc2ccc(O)cc2)NC(=O)[C@H](CCC(N)=O)NC(=O)[C@H](CCCCN)NC(=O)[C@H](CO)NC(=O)[C@@H](NC(=O)[C@H](CC(=O)O)NC(=O)[C@H](CO)NC(=O)[C@@H](NC(=O)[C@H](Cc2ccccc2)NC(=O)[C@@H](NC(=O)CNC(=O)[C@H](CCC(=O)O)NC(=O)C(C)(C)NC(=O)[C@@H](N)Cc2c[nH]cn2)[C@@H](C)O)[C@@H](C)O)C(C)C)C(C)C)CCCCNC(=O)CC[C@@H](C(=O)N[C@@H](Cc2c[nH]c3ccccc23)C(=O)N[C@@H](CC(C)C)C(=O)N[C@@H](CCCCN)C(=O)N[C@@H](CC(N)=O)C(=O)NCC(=O)NCC(=O)N2CCC[C@H]2C(=O)N[C@@H](CO)C(=O)N[C@@H](CO)C(=O)NCC(=O)N[C@@H](C)C(=O)N2CCC[C@H]2C(=O)N2CCC[C@H]2C(=O)N2CCC[C@H]2C(=O)N[C@@H](CO)C(N)=O)NC1=O [Compound A135] | −4.3 | −7.4 | −6.4 | −4.2 | −3.7 | −4.8 | −4.3 | −52.6 | −62.2 | −29.4 | −8.0 | – |
| semaglutide | – | – | – | – | – | – | – | – | – | – | – | % Weight loss EC50 [5, 10]: 3.9 ng/mL; % Weight loss ED50 [5, 10]: 23 µg/kg/day; % Weight loss at 300 mcg/kg/day dose ([5]; ΔΔ % weight decrease in DIO rat at day 27, 300 mcg/kg/day): 24%; changes in body composition [6]: primarily due to fat mass loss; % Change HbA1c EC50 (HbA1c; [11]): 6 ng/mL; % Change HbA1c ED50 (HbA1c; [11]): 36 µg/kg/day; % Change HbA1c at 300 mcg/kg/day dose (HbA1c; ΔΔ % change in HbA1c in ZDF rat at day 27, 300 mcg/kg/day): 4.8%; changes in body composition [7]: primarily due to fat mass loss |
| CC[C@H](C)[C@H](NC(=O)[C@H](Cc1ccccc1)NC(=O)[C@H](CC(C)C)NC(=O)[C@H](CCCNC(=N)N)NC(=O)[C@@H](NC(=O)[C@H](C)NC(=O)[C@H](CCC(=O)O)NC(=O)[C@H](CCCCNC(=O)CC[C@H](NC(=O)COCCOCCNC(=O)CCCCCCCCCCCCCCCCCCC(=O)O)C(=O)O)NC(=O)[C@H](CCC(=O)O)NC(=O)[C@H](Cc1ccc(O)cc1)NC(=O)[C@H](CCC(N)=O)NC(=O)[C@H](CCCCN)NC(=O)[C@H](CO)NC(=O)[C@H](CC(C)C)NC(=O)[C@H](CC(=O)O)NC(=O)[C@H](CCC(=O)O)NC(=O)[C@@H](NC(=O)[C@H](Cc1ccccc1)NC(=O)[C@@H](NC(=O)CNC(=O)[C@H](CCC(=O)O)NC(=O)C(C)(C)NC(=O)[C@@H](N)Cc1c[nH]cn1)[C@@H](C)O)[C@@H](C)O)C(C)C)C(=O)N[C@@H](CO)C(=O)N[C@@H](Cc1c[nH]c2ccccc12)C(=O)N[C@@H](CC(C)C)C(=O)N[C@@H](CCCCN)C(=O)N[C@@H](CC(N)=O)C(=O)NCC(=O)NCC(=O)N1CCC[C@H]1C(=O)N[C@@H](CO)C(=O)N[C@@H](CO)C(=O)NCC(=O)N[C@@H](C)C(=O)N1CCC[C@H]1C(=O)N1CCC[C@H]1C(=O)N1CCC[C@H]1C(=O)N[C@@H](CO)C(N)=O [Compound A162] | – | – | – | – | – | – | – | – | – | – | – | Stability @ 37° C. (% purity) Day 14 ([8]; solute DI H2O, 37° C., TFA salt unless indicated otherwise): 96.6%; Stability @ RT (% purity) Day 0 ([8]; solute DI H2O, TFA salt unless indicated otherwise, 1 mg/ml): 95.8%; Stability @ RT (% purity) Day 14 ([8]; solute DI H2O, TFA salt unless indicated otherwise): 94.7%; Stability @ RT (% purity) Day 28 ([8]; solute DI H2O, Day 28, TFA salt unless indicated otherwise): 94.5%; Stability @ 37° C. (% purity) Day 14 ([8]; solute Saline, 37° C., TFA salt unless indicated otherwise): 96.7%; Appearance of stability sample (cloudy / particulates) ([8]; solute Saline, 37° C., Day 28): (c); Stability @ 37° C. (% purity) Day 28 ([8]; solute Saline, 37° C., Day 28, TFA salt unless indicated otherwise): 85.5%; Stability @ RT (% purity) Day 0 [8, 12]: 97.9%; Stability @ RT (% purity) Day 14 [8, 12]: 93.7%; Stability @ RT (% purity) Day 28 ([8]; solute Saline, Day 28, TFA salt unless indicated otherwise): 94.9%; solubility ([9]; DI water, read-out: Solubility (mg/mL) in DI water): > 101 mg/mL; solubility ([9]; saline, read-out: Solubility (mg/mL) in saline): > 101 mg/mL |
| CC[C@H](C)[C@@H]1NC(=O)[C@H](Cc2ccccc2)NC(=O)[C@H](CCCCN)NC(=O)[C@@H](NC(=O)[C@H](C)NC(=O)[C@H](C)NC(=O)[C@H](CCC(=O)O)NC(=O)[C@H](CCCCNC(=O)CC[C@H](NC(=O)CC[C@H](NC(=O)COCCOCCNC(=O)CCCCCCCCCCCCCCCCCCC(=O)O)C(=O)O)C(=O)O)NC(=O)[C@H](CCC(=O)O)NC(=O)[C@H](Cc2ccc(O)cc2)NC(=O)[C@H](CCC(N)=O)NC(=O)[C@H](CCCCN)NC(=O)[C@H](CO)NC(=O)[C@@H](NC(=O)[C@H](CC(=O)O)NC(=O)[C@H](CO)NC(=O)[C@@H](NC(=O)[C@H](Cc2ccccc2)NC(=O)[C@@H](NC(=O)CNC(=O)[C@H](CCC(=O)O)NC(=O)C(C)(C)NC(=O)[C@@H](N)Cc2c[nH]cn2)[C@@H](C)O)[C@@H](C)O)C(C)C)CCCCNC(=O)CC[C@@H](C(=O)N[C@@H](Cc2c[nH]c3ccccc23)C(=O)N[C@@H](CC(C)C)C(=O)N[C@@H](CCCCN)C(=O)N[C@@H](CC(N)=O)C(=O)NCC(=O)NCC(=O)N2CCC[C@H]2C(=O)N[C@@H](CO)C(=O)N[C@@H](CO)C(=O)NCC(=O)N[C@@H](C)C(=O)N2CCC[C@H]2C(=O)N2CCC[C@H]2C(=O)N2CCC[C@H]2C(=O)N[C@@H](CO)C(N)=O)NC1=O [Compound A137] | −4.7 | −6.6 | −6.0 | −4.8 | −3.0 | −2.9 | −2.7 | −67.0 | −69.0 | −25.7 | −14.7 | – |
